IC50 data for 22 molecules are collected here from patent publication US10689378B2, “Triazolopyridine compounds and uses thereof” (Novartis AG, priority 2016, dated 2020).

For one experiment, the target named is T1, EED (1-441)-His protein (Homo sapiens, UniProt O75530).
T1 construct: 30 nM EED (1-441)-His protein
Briefly: EED-H3K27Me3 peptide competition binding assay by AlphaScreen. The conditions noted are these: read-out: (a) IC50, EED Alphascreen binding Qualified. A digest of the protocol: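 Serially diluted compound (12 points, 3-fold) incubated 20 min with 30 nM EED(1-441)-His and 15 nM biotin-H3K27Me3(19-33) peptide in 25 mM HEPES pH 8, 0.02% Tween-20, 0.5% BSA. Ni-chelate acceptor/streptavidin donor beads (10 μg/mL each) added, 1 h rt dark; 615 nm emission normalized to controls, dose-response fit for IC50.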

Experiment [1] concerns the target wild type PRC2 (wtPRC2) complex (Homo sapiens, UniProt O75530). The experiment can be described thus: EED LC-MS assay (SAH production by PRC2). Type of experiment: biochemical. To be noted: read-out: (b) IC50, EED LC-MS Qualified. The procedure: Compounds of the present invention were assessed for their ability to inhibit PRC2 activity in a pentameric complex of EZH2, SUZ12, EED, Rbap48 and AEBP in biochemical assays. The ability of compounds of the present invention to inhibit cellular activity of PRC2 was assessed by analysing histone H3 lysine 27 methylation in human cell lines. The ability of compounds of the present invention to inhibit cancers was derived from their ability to modulate activity in human cancer cell lines bearing specific dependence to PRC2 activity to maintain cancerous growth.
Representative compounds of the present invention were serially and separately diluted 3-fold in DMSO to obtain a total of eight or twelve concentrations. Then the test compounds at each concentration (120 nL of each) were transferred by Mosquito into a 384-well Perkin Elmer ProxiPlate 384 plus plates. Solutions (6 μL) of 24 nM the wild type PRC2 (wtPRC2) complex and 2 μM SAM in reaction buffer (20 mM Tris, pH 8.0, 0.1% BSA, 0.01% Triton, 0.5 mM DTT) were added to the wells that were then incubated with the test compound for 20 min. A 6 μL solution of 3 μM of the peptide substrate H3K27Me0 (histone H3[21-44]-biotin) in reaction buffer was added to initiate each reaction. The final components in the reaction solution include 12 nM wtPRC2 complex, 1 μM SAM, and 1.5 μM H3K27me0 peptide with varying concentration of the compounds. A positive control consisted of the enzyme, 1 μM SAM and 1.5 μM substrate in the absence of the test compound, and a negative control consisted of 1 μM SAM and 1.5 μM substrate only. Each reaction was incubated at rt for 120 min, then stopped by addition of 3 μL per of quench solution (2.5% TFA with 320 nM d4-SAH). The reaction mixture was centrifuged (Eppendorf centrifuge 5810, Rotor A-4-62) for 2 min at 2000 rpm and read on an API 4000 triple quadrupole mass spec with Turbulon Spray (Applied Biosystem) coupled with Prominence UFLC (Shimadzu). The levels of SAH production were then normalized based on the values coming from the positive and negative controls to give percent enzyme activities. The data were then fit to a dose response equation using the program Helios to get the IC50 values of the test compound.

Experiment [2] has as its system H3K27 methylation in G401 cell. Briefly: ELISA (H3K27 methylation) assay in G401 cells. Type of experiment: cell-based, human. The conditions noted are these: Homo sapiens, G-401, read-out: (c) IC50, ELISA Qualified. A digest of the protocol: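 G401 cells treated 48 h with 3-fold dilutions (8 or 12 points, top 20 μM). Acid-extracted histones probed by ELISA for H3K27me3 or H3K27me2 with ECL readout, normalized to total H3. Percent inhibition versus DMSO fitted to dose-response curve for IC50.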

The term IC50 denotes the concentration that gives 50% inhibition.

SMILES strings stand for the structures.

T1 sequence (O75530 whole entry): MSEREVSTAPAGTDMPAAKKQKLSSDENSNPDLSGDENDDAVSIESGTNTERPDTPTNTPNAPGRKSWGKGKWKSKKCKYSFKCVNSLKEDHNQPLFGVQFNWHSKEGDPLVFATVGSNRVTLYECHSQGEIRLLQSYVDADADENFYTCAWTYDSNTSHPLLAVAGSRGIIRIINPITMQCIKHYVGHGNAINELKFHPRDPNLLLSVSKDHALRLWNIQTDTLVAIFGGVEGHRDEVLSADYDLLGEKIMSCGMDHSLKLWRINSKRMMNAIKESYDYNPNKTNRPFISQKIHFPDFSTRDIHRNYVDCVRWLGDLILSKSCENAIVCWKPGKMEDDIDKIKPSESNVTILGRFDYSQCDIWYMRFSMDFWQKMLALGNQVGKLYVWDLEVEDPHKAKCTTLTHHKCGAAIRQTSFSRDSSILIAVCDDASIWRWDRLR
Chain of wild type PRC2 (wtPRC2) complex (O75530 whole entry): as above
Chain of wild type PRC2 (wtPRC2) complex (Q15910 whole entry partner): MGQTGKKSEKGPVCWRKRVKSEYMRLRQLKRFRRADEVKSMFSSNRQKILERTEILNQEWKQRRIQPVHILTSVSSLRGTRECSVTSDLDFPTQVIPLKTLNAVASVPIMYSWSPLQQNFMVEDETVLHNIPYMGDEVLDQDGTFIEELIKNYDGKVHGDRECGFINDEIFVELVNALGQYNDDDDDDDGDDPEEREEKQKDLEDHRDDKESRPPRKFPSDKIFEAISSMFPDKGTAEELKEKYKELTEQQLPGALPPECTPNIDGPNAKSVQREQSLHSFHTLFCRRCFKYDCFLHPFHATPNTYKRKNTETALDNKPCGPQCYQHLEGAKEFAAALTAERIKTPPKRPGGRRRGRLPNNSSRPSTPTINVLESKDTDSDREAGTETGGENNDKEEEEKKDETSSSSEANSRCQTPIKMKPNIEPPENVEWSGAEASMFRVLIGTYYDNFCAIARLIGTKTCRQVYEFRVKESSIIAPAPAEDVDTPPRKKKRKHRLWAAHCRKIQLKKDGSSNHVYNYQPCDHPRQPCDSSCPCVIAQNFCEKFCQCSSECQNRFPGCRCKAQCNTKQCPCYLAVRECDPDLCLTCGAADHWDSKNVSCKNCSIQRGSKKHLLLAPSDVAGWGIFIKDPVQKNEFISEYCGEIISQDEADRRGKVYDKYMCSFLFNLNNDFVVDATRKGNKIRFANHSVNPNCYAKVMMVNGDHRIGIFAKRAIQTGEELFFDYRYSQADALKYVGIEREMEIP
Chain of wild type PRC2 (wtPRC2) complex (Q15022 whole entry partner): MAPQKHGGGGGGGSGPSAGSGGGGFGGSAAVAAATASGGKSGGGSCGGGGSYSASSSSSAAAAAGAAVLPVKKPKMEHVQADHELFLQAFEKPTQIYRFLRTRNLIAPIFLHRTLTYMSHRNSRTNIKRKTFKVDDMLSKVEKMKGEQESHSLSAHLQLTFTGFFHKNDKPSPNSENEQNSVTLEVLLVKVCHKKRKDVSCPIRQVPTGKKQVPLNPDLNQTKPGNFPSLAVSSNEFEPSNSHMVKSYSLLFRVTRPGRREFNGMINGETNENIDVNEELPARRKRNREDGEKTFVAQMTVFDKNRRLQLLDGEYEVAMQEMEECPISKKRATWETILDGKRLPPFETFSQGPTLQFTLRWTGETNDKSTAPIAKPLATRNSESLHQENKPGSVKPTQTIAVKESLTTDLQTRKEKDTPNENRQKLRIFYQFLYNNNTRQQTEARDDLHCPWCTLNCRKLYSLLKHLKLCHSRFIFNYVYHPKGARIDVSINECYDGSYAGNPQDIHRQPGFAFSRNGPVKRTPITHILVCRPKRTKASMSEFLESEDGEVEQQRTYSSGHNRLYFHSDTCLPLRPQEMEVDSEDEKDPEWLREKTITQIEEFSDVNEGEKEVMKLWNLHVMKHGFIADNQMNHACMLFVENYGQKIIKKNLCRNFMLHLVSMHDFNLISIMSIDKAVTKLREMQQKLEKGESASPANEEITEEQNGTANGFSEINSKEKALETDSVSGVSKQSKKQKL
Chain of wild type PRC2 (wtPRC2) complex (Q09028 whole entry partner): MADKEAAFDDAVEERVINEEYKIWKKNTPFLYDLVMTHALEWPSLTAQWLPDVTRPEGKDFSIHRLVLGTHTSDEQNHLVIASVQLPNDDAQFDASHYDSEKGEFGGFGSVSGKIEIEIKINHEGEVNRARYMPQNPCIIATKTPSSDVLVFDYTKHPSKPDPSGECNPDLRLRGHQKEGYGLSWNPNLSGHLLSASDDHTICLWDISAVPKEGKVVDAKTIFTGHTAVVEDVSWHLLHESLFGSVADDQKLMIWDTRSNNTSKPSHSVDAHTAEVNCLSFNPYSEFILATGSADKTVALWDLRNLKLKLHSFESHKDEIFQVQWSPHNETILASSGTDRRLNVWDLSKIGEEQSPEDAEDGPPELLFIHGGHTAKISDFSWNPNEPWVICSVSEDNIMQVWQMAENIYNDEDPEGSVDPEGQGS
Chain of wild type PRC2 (wtPRC2) complex (Q6ZN18 whole entry partner): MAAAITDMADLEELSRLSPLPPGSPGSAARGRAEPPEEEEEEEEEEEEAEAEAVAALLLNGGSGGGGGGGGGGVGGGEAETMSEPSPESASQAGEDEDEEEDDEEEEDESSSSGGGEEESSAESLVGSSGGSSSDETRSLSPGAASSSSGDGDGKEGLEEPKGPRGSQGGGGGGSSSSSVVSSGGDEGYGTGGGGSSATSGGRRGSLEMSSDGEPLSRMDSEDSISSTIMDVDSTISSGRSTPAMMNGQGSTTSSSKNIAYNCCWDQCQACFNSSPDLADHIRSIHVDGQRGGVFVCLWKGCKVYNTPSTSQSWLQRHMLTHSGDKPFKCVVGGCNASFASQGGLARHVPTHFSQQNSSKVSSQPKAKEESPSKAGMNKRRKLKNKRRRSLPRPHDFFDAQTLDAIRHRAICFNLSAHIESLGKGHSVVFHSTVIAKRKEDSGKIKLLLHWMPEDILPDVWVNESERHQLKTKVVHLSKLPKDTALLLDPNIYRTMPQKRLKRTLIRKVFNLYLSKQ

As to `COc1cc(F)ccc1CNc1ccc(-c2ccc(CN(C)C)cc2)c2nncn12` [Example 33, 8-(4-((dimethylamino)methyl)phenyl)-N-(4-fluoro-2-methoxybenzyl)-[1,2,4] triazolo[4,3-a]pyridin-5-amine], the half-maximal inhibitory concentration (IC50) on EED (1-441)-His protein came to 84.2 nM; in experiment [1], 294 nM; in experiment [2] it was 277 nM.
With `COc1ccccc1CNc1ccc(-c2ccc(S(=O)(=O)N(C)C)cc2)c2nncn12` [Example 34, 4-(5-((2-methoxybenzyl)amino)-[1,2,4]triazolo[4,3-a]pyridin-8-yl)-N,N-dimethyl benzenesulfonamide], the IC50 on EED (1-441)-His protein was found to be 4.5 nM; in experiment [1] it was 358 nM; in experiment [2], 18.4 nM.
As to `COc1ccccc1CNc1ccc(-c2ccc(CN3CCOCC3)nc2)c2nncn12` [Example 38, N-(2-methoxybenzyl)-8-(6-(morpholinomethyl)pyridin-3-yl)-[1,2,4]triazolo[4,3-a] pyridin-5-amine], the IC50 at EED (1-441)-His protein worked out at 32.5 nM; in experiment [1], 438 nM; in experiment [2], 46.9 nM.
The like results for `COc1ccccc1CNc1ccc(-c2ccc(CN3CCN(C)CC3)cc2)c2nncn12` [Example 39, N-(2-methoxybenzyl)-8-(4-((4-methylpiperazin-1-yl)methyl)phenyl)-[1,2,4] triazolo[4,3-a]pyridin-5-amine] were, in that order, 15.5 nM, 269 nM and 37.5 nM.
Turning to `COc1ccccc1CNc1ccc(-c2ccc(C[N+](C)(C)[O-])cc2)c2nncn12` [Example 40, 1-(4-(5-((2-methoxybenzyl)amino)-[1,2,4]triazolo[4,3-a]pyridin-8-yl)phenyl)-N,N-dimethylmethanamine oxide], the figures for the half-maximal inhibitory concentration (IC50) (on EED (1-441)-His protein; in experiment [1]; in experiment [2]) were 78 nM, 457 nM and 138 nM, respectively.
The like results for `COc1ccccc1CNc1ccc(-c2ccc(C(=O)N(C)C)cc2)c2nncn12` [Example 41, 4-(5-((2-methoxybenzyl)amino)-[1,2,4]triazolo[4,3-a]pyridin-8-yl)-N,N-dimethyl benzamide] were, in that order, 24.9 nM, 305 nM and 47.4 nM.
`COc1ccccc1CNc1ccc(-c2ccc(C(=O)N3CCCC3)cc2)c2nncn12` [Example 42, (4-(5-((2-methoxybenzyl)amino)-[1,2,4]triazolo[4,3-a]pyridin-8-yl)phenyl) (pyrrolidin-1-yl)methanone]: the half-maximal inhibitory concentration (IC50) turned out to be 16.5 nM at EED (1-441)-His protein, 206 nM in experiment [1] and 27.9 nM in experiment [2].
Take `COc1ccccc1CNc1ccc(-c2cc(F)c(CN(C)C)c(F)c2)c2nncn12` [Example 43, 8-(4-((dimethylamino)methyl)-3,5-difluorophenyl)-N-(2-methoxybenzyl)-[1,2,4] triazolo[4,3-a]pyridin-5-amine]: the half-maximal inhibitory concentration (IC50) at EED (1-441)-His protein is 9.5 nM; in experiment [1] it was 785 nM; in experiment [2], 3.8 nM.
The like results for `COc1ccccc1CNc1ccc(-c2cc(F)c(CN3CCCCC3)c(F)c2)c2nncn12` [Example 44, 8-(3,5-difluoro-4-(piperidin-1-ylmethyl)phenyl)-N-(2-methoxybenzyl)-[1,2,4] triazolo[4,3-a]pyridin-5-amine] were, in that order, 74.8 nM, 1100 nM and 112 nM.
For `COc1cccc(F)c1CNc1ccc(-c2ccc(CN(C)C)cc2)c2nncn12` [Example 45, 8-(4-((dimethylamino)methyl)phenyl)-N-(2-fluoro-6-methoxybenzyl)-[1,2,4] triazolo[4,3-a]pyridin-5-amine], in that order: 17.7 nM, 23.3 nM and 7.6 nM.
As for `COc1ccccc1CNc1ccc(-c2ccccc2F)c2nncn12` [Example 47, 8-(2-fluorophenyl)-N-(2-methoxybenzyl)-[1,2,4] triazolo[4,3-a]pyridin-5-amine], the IC50 at EED (1-441)-His protein came to 98.5 nM; in experiment [1], 1330 nM; in experiment [2], 293 nM.
With `COc1ccccc1CNc1ccc(-c2cnc(OC)c(F)c2)c2nncn12` [Example 50, 8-(5-fluoro-6-methoxypyridin-3-yl)-N-(2-methoxybenzyl)-[1,2,4]triazolo[4,3-a] pyridin-5-amine], the figures for the half-inhibitory concentration (IC50) (on EED (1-441)-His protein; in experiment [1]; in experiment [2]) were 91.5 nM, 3190 nM and 374 nM, respectively.
Turning to `COc1ncc(-c2ccc(NCc3ccccc3OC)n3cnnc23)cn1` [Example 52, N-(2-methoxybenzyl)-8-(2-methoxypyrimidin-5-yl)-[1,2,4]triazolo[4,3-a]pyridin-5-amine], the figures for the IC50 (at EED (1-441)-His protein; in experiment [1]; in experiment [2]) were 89.4 nM, 735 nM and 106 nM, respectively.
Consider `COc1ccccc1CNc1ccc(-c2ccc(S(=O)(=O)C3CCNCC3)cc2)c2nncn12` [Example 53, N-(2-methoxybenzyl)-8-(4-(piperidin-4-ylsulfonyl)phenyl)-[1,2,4]triazolo[4,3-a] pyridin-5-amine], for which the values for the IC50 (at EED (1-441)-His protein; in experiment [1]; in experiment [2]) were 27.9 nM, 144 nM and 36.5 nM, respectively.
Take `COc1ccccc1CNc1ccc(-c2ccc(CN3CC(F)(F)C3)cc2)c2nncn12` [Example 54, 8-(4-((3,3-difluoroazetidin-1-yl)methyl)phenyl)-N-(2-methoxybenzyl)-[1,2,4] triazolo[4,3-a]pyridin-5-amine]: the IC50 on EED (1-441)-His protein came out at 19 nM; in experiment [1], 230 nM; in experiment [2], 56.6 nM.
Regarding `CCS(=O)(=O)c1ccc(-c2ccc(NCc3ccccc3OC)n3cnnc23)cc1` [Example 56, 8-(4-(ethylsulfonyl)phenyl)-N-(2-methoxybenzyl)-[1,2,4]triazolo[4,3-a]pyridin-5-amine], the IC50 amounted to 33 nM at EED (1-441)-His protein, 130 nM in experiment [1] and 88.5 nM in experiment [2].
Take `COc1ccccc1CNc1ccc(-c2ccc(S(=O)(=O)C(C)C)cc2)c2nncn12` [Example 57, 8-(4-(isopropylsulfonyl)phenyl)-N-(2-methoxybenzyl)-[1,2,4]triazolo[4,3-a] pyridin-5-amine]: the concentration for half-maximal inhibition (IC50) at EED (1-441)-His protein stood at 15.9 nM; in experiment [1], 183 nM; in experiment [2], 39.5 nM.
For the molecule `COc1ccccc1CNc1ccc(-c2ccc(S(C)(=O)=O)nc2)c2nncn12` [Example 61, N-(2-methoxybenzyl)-8-(6-(methylsulfonyl)pyridin-3-yl)-[1,2,4]triazolo[4,3-a] pyridin-5-amine], the IC50 was 43.8 nM at EED (1-441)-His protein, 538 nM in experiment [1] and 61.9 nM in experiment [2].
As to `COc1ccccc1CNc1ccc(-c2c(C)noc2C)c2nncn12` [Example 62, 8-(3,5-dimethylisoxazol-4-yl)-N-(2-methoxybenzyl)-[1,2,4]triazolo[4,3-a]pyridin-5-amine], the half-maximal inhibitory concentration (IC50) at EED (1-441)-His protein was determined as 43.6 nM; in experiment [1], 321 nM; in experiment [2] it was 66.7 nM.
On to `COc1ccccc1CNc1ccc(-c2ccc(C(C)=O)cc2)c2nncn12` [Example 63, 1-(4-(5-((2-methoxybenzyl)amino)-[1,2,4]triazolo[4,3-a]pyridin-8-yl)phenyl) ethanone], for which the results for the half-maximal inhibitory concentration (IC50) (at EED (1-441)-His protein; in experiment [1]; in experiment [2]) were 76.8 nM, 1700 nM and 275 nM, respectively.
In the case of `COc1ccccc1CNc1ccc(-c2ccc(C(N)=O)c(Cl)c2)c2nncn12` [Example 64, 2-chloro-4-(5-((2-methoxybenzyl)amino)-[1,2,4]triazolo[4,3-a]pyridin-8-yl) benzamide], the 50% inhibitory concentration (IC50) stood at 31.7 nM on EED (1-441)-His protein, 914 nM in experiment [1] and 126 nM in experiment [2].
For `COc1ccccc1CNc1ccc(-c2ccc(CN3CC(F)C3)cc2)c2nncn12` [Example 66, 8-(4-((3-fluoroazetidin-1-yl)methyl)phenyl)-N-(2-methoxybenzyl)-[1,2,4] triazolo[4,3-a]pyridin-5-amine], in that order: 11.8 nM, 252 nM and 29.9 nM.
